Experimental data reported in patent US20220402862A1 (Intellia Therapeutics, Inc., priority 2019, published 2022).

How the values were obtained:
[1] = Dynamic light scattering of LNPs: Z-average diameter, number average diameter, PDI; assay type: physicochemical; conditions: LNP, sg:mRNA 1:1, N/P about 6, 50/9/38/3; Table 2, Experiments 2-20
In short: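 Values reported are the Z-average (intensity-weighted mean size), the number-average diameter and the PDI (spread of sizes, 0 = fully uniform). All three came from dynamic light scattering of LNP preparations after dilution in PBS.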

[2] = pKa measurement of unformulated amine lipid (fluorescence, method of Jayaraman et al.); assay type: physicochemical; conditions: 100 μM in 0.1 M phosphate buffer, pH 2.0-12.0
Protocol: The pKa of each amine lipid was determined according to the method in Jayaraman, et al. (Angewandte Chemie, 2012) with the following adaptations. […] Lipid was diluted to 100 μM in 0.1 M phosphate buffer (Boston Bioproducts) where the pH ranged from 2.0-12.0. Fluorescence intensity was measured using excitation and emission wavelengths of 321 nm and 448 nm.

Transthyretin (TTR) = assay: Serum TTR ELISA in mice after LNP dosing; assay type: in vivo, CD-1 female mice; conditions: guide G282 experiments; for Serum TTR % TSS: mouse serum TTR relative to TSS control; for Serum TTR: mouse serum, ELISA
Protocol: CD-1 female mice ranging from 6-10 weeks of age were used in each study. Animals were weighed and grouped according to body weight for preparing dosing solutions based on group average weight. LNPs were dosed via the lateral tail vein in a volume of 0.2 mL per animal (approximately 10 mL per kilogram body weight). The animals were periodically observed for adverse effects for at least 24 hours post dose. For studies measuring in vivo editing in liver, CD-1 female mice were dosed at 0.1 mg/kg unless otherwise noted. Animals were euthanized at 6 or 7 days by ex sanguination via cardiac puncture under isoflurane anesthesia. Liver tissue was collected from each animal for DNA extraction and analysis. Blood was collected into serum separator tubes or into tubes containing buffered sodium citrate for plasma as described herein. Cohorts of mice were measured for editing by Next-Generation Sequencing (NGS).
Blood was collected and the serum was isolated as indicated. The total mouse TTR serum levels were determined using a Mouse Prealbumin (Transthyretin) ELISA Kit (Aviva Systems Biology, Cat. OKIA00111). Briefly, sera were serial diluted with kit sample diluent to a final dilution of 10,000-fold for 0.1 mg/kg dose and final dilutions of 10,000-fold and of 2,500-fold for 0.3 mg/kg. This diluted sample was then added to the ELISA plates and the assay was carried out according to the manufacturer's directions.

[3] = RNA encapsulation efficiency of LNPs (Ribogreen fluorescence assay); assay type: physicochemical; conditions: LNP, sg:mRNA 1:1, N/P about 6, amine lipid/DSPC/cholesterol/PEG-2k-DMG 50/9/38/3; Table 2, Experiments 2-20
In short: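 Encapsulation efficiency is (Total RNA − Free RNA)/Total RNA. Free RNA was quantified by RiboGreen fluorescence (488/525 nm, ~10 min, RT, dark) in plain TE buffer; total RNA was quantified after LNP lysis with 0.2% Triton X-100, both against RNA standard curves.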

Number mean (nm) [1] [nm]	PDI [1]	Z-avg (nm) [1] [nm]	pKa [2]	Encapsulation (%) [3] [%]	Compound	Serum TTR % TSS (Transthyretin (TTR)) [%]	Serum TTR (Transthyretin (TTR)) [µg/mL]
69.23	0.007	82.93	7.3	98	CCCCC/C=C\C/C=C\CCCCCCCC(=O)OCC(COC(=O)CCC(OCCCCCCCC)OCCCCCCCC)COC(=O)NC(C)CN(C)C (centres unmarked) [Compound 45, 3-((4,4-bis(octyloxy)butanoyl)oxy)-2-((((1-(dimethylamino)propan-2-yl)carbamoyl)oxy)methyl)propyl (9Z,12Z)-octadeca-9,12-dienoate]	98	1096
59.48	0.024	73.71	6.58	98	CCCCC/C=C\C/C=C\CCCCCCCC(=O)OCC(COC(=O)CCC(OCCCCCCCC)OCCCCCCCC)COC(=O)NC1CCCN(CC)C1 (centres unmarked) [Compound 36, 3-((4,4-bis(octyloxy)butanoyl)oxy)-2-((((1-ethylpiperidin-3-yl)carbamoyl)oxy)methyl)propyl (9Z,12Z)-octadeca-9,12-dienoate]	99	795
65.94	0.019	81.55	5.76	98	CCCCC/C=C\C/C=C\CCCCCCCC(=O)OCC(C)(COC(=O)CCC(OCCCCCCCC)OCCCCCCCC)COC(=O)OCCCN(CC)CC (centres unmarked) [Compound 96, 3-((4,4-bis(octyloxy)butanoyl)oxy)-2-((((3-(diethylamino)propoxy)carbonyl)oxy)methyl)-2-methylpropyl (9Z,12Z)-octadeca-9,12-dienoate]	58	449
75.22	0.002	91.65	6.07	99	CCCCCCCCCCOC(=O)CCCCCCCC(=O)OCC(COC(=O)CCC(OCCCCCCCC)OCCCCCCCC)COC(=O)OCC1CCCN(CC)C1 (centres unmarked) [Compound 72, 1-(3-((4,4-bis(octyloxy)butanoyl)oxy)-2-(((((1-ethylpiperidin-3-yl)methoxy)carbonyl)oxy)methyl)propyl) 9-decyl nonanedioate]	52	479
81.15	0.017	99.62	6.14	99	CCCCCCCCCCOC(=O)CCCCCCCCCC(=O)OCC(COC(=O)CCC(OCCCCCCCC)OCCCCCCCC)COC(=O)OCCCN(CC)CC (centres unmarked) [Compound 90, 1-(3-((4,4-bis(octyloxy)butanoyl)oxy)-2-((((3-(diethylamino)propoxy)carbonyl)oxy)methyl)propyl) 11-decyl undecanedioate]	67	504
64.78	0.025	81.19	6.1	91	CCCCC/C=C\C/C=C\CCCCCCCC(=O)OCC(COC(=O)CCC(OCCCCCCCC)OCCCCCCCC)COC(=O)NC(C)CN(CC)CC (centres unmarked) [Compound 44, 3-((4,4-bis(octyloxy)butanoyl)oxy)-2-((((1-(diethylamino)propan-2-yl)carbamoyl)oxy)methyl)propyl (9Z,12Z)-octadeca-9,12-dienoate]	82	910
87.3	0.016	105.8	6.21	98	CCCCCCCCCCOC(=O)CCCCCCCC(=O)OCC(COC(=O)CCCCCC(=O)OC(CCCCCCCC)CCCCCCCC)COC(=O)OCCC1CCCN1C (centres unmarked) [Compound 80, 1-decyl 9-(3-((7-(heptadecan-9-yloxy)-7-oxoheptanoyl)oxy)-2-((((2-(1-methylpyrrolidin-2-yl)ethoxy)carbonyl)oxy)methyl)propyl) nonanedioate]	116	873
58.66	0.027	74.03	6.9	99	CCCCC/C=C\C/C=C\CCCCCCCC(=O)OCC(COC(=O)CCC(OCCCCCCCC)OCCCCCCCC)COC(=O)NC1CCCN(C)C1 (centres unmarked) [Compound 42, 3-((4,4-bis(octyloxy)butanoyl)oxy)-2-((((1-methylpiperidin-3-yl)carbamoyl)oxy)methyl)propyl (9Z,12Z)-octadeca-9,12-dienoate]	81	902
81.23	0.016	99.01	6.16	98	CCCCCC/C=C\COC(=O)CCCCCCCC(=O)OCC(COC(=O)CCCC(=O)OC(CCCCCCCC)CCCCCCCC)COC(=O)OCCCN(CC)CC (centres unmarked) [Compound 86, (Z)-1-(3-(((3-(diethylamino)propoxy)carbonyl)oxy)-2-(((5-(heptadecan-9-yloxy)-5-oxopentanoyl)oxy)methyl)propyl) 9-(non-2-en-1-yl) nonanedioate]	64	582
69.4	0.032	86.72	7.8	99	CCCCC/C=C\C/C=C\CCCCCCCC(=O)OCC(COC(=O)CCC(OCCCCCCCC)OCCCCCCCC)COC(=O)OCC1(C)CCCN(CC)C1 (centres unmarked) [Compound 52, 3-((4,4-bis(octyloxy)butanoyl)oxy)-2-(((((1-ethyl-3-methylpiperidin-3-yl)methoxy)carbonyl)oxy)methyl)propyl (9Z,12Z)-octadeca-9,12-dienoate]	84	935
44.73	0.091	65.01	7.84	100	CCCCC/C=C\C/C=C\CCCCCCCC(=O)OCC(COC(=O)CCC(OCCCCCCCC)OCCCCCCCC)COC(=O)NC1CCN(CC)CC1 (centres unmarked) [Compound 37, 3-((4,4-bis(octyloxy)butanoyl)oxy)-2-((((1-ethylpiperidin-4-yl)carbamoyl)oxy)methyl)propyl (9Z,12Z)-octadeca-9,12-dienoate]	77	617
87.14	0.021	105.7	6.39	99	CCCCCCCCCCOC(=O)CCCCCCCC(=O)OCC(COC(=O)CCC(OCCCCCCCC)OCCCCCCCC)COC(=O)OCCC1CCCN1C (centres unmarked) [Compound 74, 1-(3-((4,4-bis(octyloxy)butanoyl)oxy)-2-((((2-(1-methylpyrrolidin-2-yl)ethoxy)carbonyl)oxy)methyl)propyl) 9-decyl nonanedioate]	44	406
85.4	0.006	101.8	6.16	99	CCCCCCCCCCOC(=O)CCCCCCCC(=O)OCC(COC(=O)CCCC(=O)OC(CCCCCCCC)CCCCCCCC)COC(=O)OCCCN(CC)CC (centres unmarked) [Compound 77, 1-decyl 9-(3-(((3-(diethylamino)propoxy)carbonyl)oxy)-2-(((5-(heptadecan-9-yloxy)-5-oxopentanoyl)oxy)methyl)propyl) nonanedioate]	53	478
72.23	0.018	86.15	7.3	98	CCCCC/C=C\C/C=C\CCCCCCCC(=O)OCC(COC(=O)CCC(OCCCCCCCC)OCCCCCCCC)COC(=O)OCC1CCN(CC)C1 (centres unmarked) [Compound 51, 3-((4,4-bis(octyloxy)butanoyl)oxy)-2-(((((1-ethylpyrrolidin-3-yl)methoxy)carbonyl)oxy)methyl)propyl (9Z,12Z)-octadeca-9,12-dienoate]	76	843
